Source: ChEMBL document CHEMBL1909046, “DrugMatrix in vitro pharmacology data”

Tests used:
[1] = biological target: T1, Muscarinic acetylcholine receptor M4 (Homo sapiens, UniProt P08173); type: cell membranes, CHO-K1, Membrane; further: in other assays of this panel Not Active means under 50% inhibition at 10 µM
T1 sequence (P08173 whole entry): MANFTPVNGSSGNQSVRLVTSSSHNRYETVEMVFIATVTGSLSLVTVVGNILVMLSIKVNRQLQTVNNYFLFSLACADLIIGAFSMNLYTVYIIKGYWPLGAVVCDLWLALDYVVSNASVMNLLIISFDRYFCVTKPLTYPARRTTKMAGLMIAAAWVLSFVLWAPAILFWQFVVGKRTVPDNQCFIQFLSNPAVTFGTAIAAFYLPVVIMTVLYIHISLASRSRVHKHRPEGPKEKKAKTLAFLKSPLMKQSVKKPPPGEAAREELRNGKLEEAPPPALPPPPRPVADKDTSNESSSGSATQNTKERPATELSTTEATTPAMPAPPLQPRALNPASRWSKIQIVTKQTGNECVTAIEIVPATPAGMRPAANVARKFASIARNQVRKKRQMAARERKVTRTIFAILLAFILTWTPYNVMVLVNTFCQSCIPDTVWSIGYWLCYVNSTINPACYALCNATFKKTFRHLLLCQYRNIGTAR

[2] = DRUGMATRIX: GABAA, Chloride Channel, TBOB radioligand binding (ligand: [3H] TBOB); type: cell membranes, Rattus norvegicus, Wistar, Cerebral cortex, Membrane; conditions: Not Active = under 50% inhibition at 10 µM
[3] = biological target: 5-hydroxytryptamine receptor 2B (Homo sapiens, UniProt P41595); type: cell membranes, CHO-K1, Membrane; conditions: cho-k1; further: in other assays of this panel Not Active means under 50% inhibition at 10 µM
Chain of 5-hydroxytryptamine receptor 2B (P41595 whole entry): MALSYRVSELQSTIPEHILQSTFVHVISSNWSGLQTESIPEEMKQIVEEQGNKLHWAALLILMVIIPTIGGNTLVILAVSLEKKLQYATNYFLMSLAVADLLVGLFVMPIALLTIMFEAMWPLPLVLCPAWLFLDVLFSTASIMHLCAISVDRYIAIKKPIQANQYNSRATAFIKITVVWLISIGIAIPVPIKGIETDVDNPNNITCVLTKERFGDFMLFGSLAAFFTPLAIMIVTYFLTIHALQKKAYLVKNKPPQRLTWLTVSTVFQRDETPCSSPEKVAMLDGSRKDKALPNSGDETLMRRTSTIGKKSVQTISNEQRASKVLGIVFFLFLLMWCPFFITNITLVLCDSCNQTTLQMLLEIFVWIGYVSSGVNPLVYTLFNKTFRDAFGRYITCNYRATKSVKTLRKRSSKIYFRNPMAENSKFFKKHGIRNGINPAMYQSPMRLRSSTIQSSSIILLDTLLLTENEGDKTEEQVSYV

[4] = DRUGMATRIX: Sodium/nucleoside co-transporter radioligand binding (ligand: nitrobenzylthioinosine); type: cell membranes, Cavia porcellus, Dunkin-Hartley, Cerebral cortex, Membrane; conditions: Not Active = under 50% inhibition at 10 µM
Carbonic anhydrase 2 = Carbonic anhydrase 2 (Homo sapiens, UniProt P00918); test: DRUGMATRIX: Carbonic Anhydrase II enzyme inhibition (substrate: 4-Nitrophenyl acetate (4-NPA)); type: tissue-based, Erythrocyte; conditions: erythrocyte; Not Active = under 50% inhibition at 10 µM
Cytochrome P450 2D6 = Cytochrome P450 2D6 (Homo sapiens, UniProt P10635); conditions: bti-tn-5b1-4; further: in other assays of this panel Not Active means under 50% inhibition at 10 µM
Chain of Cytochrome P450 2D6 (P10635 whole entry): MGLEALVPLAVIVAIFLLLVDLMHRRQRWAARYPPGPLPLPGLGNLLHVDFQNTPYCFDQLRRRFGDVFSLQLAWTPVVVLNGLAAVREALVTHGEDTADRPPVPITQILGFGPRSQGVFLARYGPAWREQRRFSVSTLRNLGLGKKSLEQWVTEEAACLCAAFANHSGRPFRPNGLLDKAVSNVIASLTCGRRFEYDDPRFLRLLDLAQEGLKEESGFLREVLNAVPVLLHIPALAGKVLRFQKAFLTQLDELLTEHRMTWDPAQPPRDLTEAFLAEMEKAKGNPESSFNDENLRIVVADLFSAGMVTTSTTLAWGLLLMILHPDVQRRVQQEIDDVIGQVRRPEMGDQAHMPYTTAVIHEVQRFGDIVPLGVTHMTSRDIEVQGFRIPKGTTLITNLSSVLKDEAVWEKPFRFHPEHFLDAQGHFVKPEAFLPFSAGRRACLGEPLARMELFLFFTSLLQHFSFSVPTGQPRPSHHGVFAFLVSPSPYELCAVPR

Histamine H2 receptor = Histamine H2 receptor (Homo sapiens, UniProt P25021); type: cell membranes, CHO-K1, Membrane; conditions: for Ki: read-out: Ki; on all read-outs here: in other assays of this panel Not Active means under 50% inhibition at 10 µM
Chain of Histamine H2 receptor (P25021 whole entry): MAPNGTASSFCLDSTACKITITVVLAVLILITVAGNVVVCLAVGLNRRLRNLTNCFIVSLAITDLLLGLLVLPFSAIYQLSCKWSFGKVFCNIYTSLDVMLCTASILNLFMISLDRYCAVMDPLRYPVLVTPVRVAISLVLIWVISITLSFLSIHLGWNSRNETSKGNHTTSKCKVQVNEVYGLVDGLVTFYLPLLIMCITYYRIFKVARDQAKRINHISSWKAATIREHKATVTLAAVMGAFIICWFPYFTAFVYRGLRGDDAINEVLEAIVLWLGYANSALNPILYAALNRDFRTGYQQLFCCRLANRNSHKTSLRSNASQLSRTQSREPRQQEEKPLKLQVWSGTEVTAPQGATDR

[5] = biological target: Delta-type opioid receptor (Homo sapiens, UniProt P41143); type: cell membranes, HEK293, Membrane; further: in other assays of this panel Not Active means under 50% inhibition at 10 µM
Chain of Delta-type opioid receptor (P41143 whole entry): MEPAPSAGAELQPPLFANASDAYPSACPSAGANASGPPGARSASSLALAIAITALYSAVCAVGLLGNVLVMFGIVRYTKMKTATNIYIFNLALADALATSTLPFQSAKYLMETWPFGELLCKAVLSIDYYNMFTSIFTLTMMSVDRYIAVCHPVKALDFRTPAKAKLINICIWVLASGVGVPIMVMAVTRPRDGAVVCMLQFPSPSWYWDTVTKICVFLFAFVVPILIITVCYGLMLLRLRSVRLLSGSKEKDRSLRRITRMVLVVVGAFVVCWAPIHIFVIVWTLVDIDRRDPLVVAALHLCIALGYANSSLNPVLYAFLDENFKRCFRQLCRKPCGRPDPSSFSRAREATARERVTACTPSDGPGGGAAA

Compound | IC50 ([1]; cho-k1) | IC50 [2] | Ki [2] | IC50 [3] | IC50 [4] | Ki [4] | IC50 (Carbonic anhydrase 2) | IC50 (Cytochrome P450 2D6) | Ki (Cytochrome P450 2D6) | IC50 (Histamine H2 receptor; cho-k1) | IC50 ([5]; hek293) | IC50 ([1]; read-out: IC50) [µM] | Ki ([1]; read-out: Ki) [µM] | IC50 (Histamine H2 receptor; read-out: IC50) [µM] | Ki (Histamine H2 receptor) [µM] | IC50 ([4]; read-out: IC50) [µM] | Ki ([4]; read-out: Ki) [µM] | IC50 ([5]; read-out: IC50) [µM] | Ki ([5]; read-out: Ki) [µM]
CC1=C(CC(=O)O)c2cc(F)ccc2/C1=C\c1ccc([S+](C)[O-])cc1 (configuration not stated) | Not Active | Not Active | Not Active | Not Active | Not Active | Not Active | Not Active | Not Active | Not Active | Not Active | Not Active |  |  |  |  |  |  |  | 
N[C@H](CSC(=S)NCc1ccccc1)C(=O)O | Not Active | Not Active | Not Active | Not Active | Not Active | Not Active | Not Active | Not Active | Not Active | Not Active | Not Active |  |  |  |  |  |  |  | 
CC(=O)N[C@@H]1[C@H](Oc2c3cc4cc2Oc2ccc(cc2Cl)[C@@H](O[C@@H]2O[C@@H](CO)[C@@H](O)[C@H](O)[C@@H]2NC(C)=O)[C@@H]2NC(=O)[C@H](NC(=O)[C@@H]4NC(=O)[C@H]4NC(=O)[C@@H](Cc5ccc(c(Cl)c5)O3)NC(=O)[C@H](N)c3ccc(O)c(c3)Oc3cc(O)cc4c3)c3ccc(O)c(c3)-c3c(O[C@H]4O[C@H](CO)[C@@H](O)[C@@H](O)[C@@H]4O)cc(O)cc3[C@@H](C(=O)O)NC2=O)O[C@@H](CO)[C@@H](O)[C@@H]1O | Not Active | Not Active | Not Active | Not Active | Not Active | Not Active | Not Active | Not Active | Not Active | Not Active | Not Active |  |  |  |  |  |  |  | 
Clc1ccc2c(c1)C(N1CCNCC1)=Nc1ccccc1O2 [AMOXAPINE] |  |  |  |  |  |  | Not Active |  |  | Not Active | Not Active |  |  |  |  |  |  |  | 
COc1cc2c(c(OC)c1OC)-c1ccc(OC)c(=O)cc1[C@@H](NC(C)=O)CC2 [COLCHICINE] | Not Active |  |  | Not Active |  |  | Not Active | Not Active | Not Active | Not Active | Not Active |  |  |  |  |  |  |  | 
CN1CCC(=C2c3ccccc3C=Cc3ccccc32)CC1 [CYPROHEPTADINE] |  |  |  |  |  |  | Not Active | Not Active | Not Active |  | Not Active | 0.016 | 0.00219 | 0.198 | 0.195 |  |  |  | 
CC/C(=C(/CC)c1ccc(O)cc1)c1ccc(O)cc1 [DIETHYLSTILBESTROL] | Not Active |  |  |  |  |  | Not Active | Not Active | Not Active | Not Active |  |  |  |  |  |  |  |  | 
CC(=O)N1CCN(c2ccc(OCC3COC(Cn4ccnc4)(c4ccc(Cl)cc4Cl)O3)cc2)CC1 (configuration not stated) [KETOCONAZOLE] | Not Active | Not Active | Not Active | Not Active |  |  | Not Active |  |  |  |  |  |  | 21.9 | 21.5 | 4.41 | 1.51 | 12.8 | 4.51
C=CCN1CC[C@]23c4c5ccc(O)c4O[C@H]2C(=O)CC[C@@]3(O)[C@H]1C5 [NALOXONE] | Not Active |  |  | Not Active |  |  | Not Active |  |  | Not Active |  |  |  |  |  |  |  |  | 
COCCOC(=O)C1=C(C)NC(C)=C(C(=O)OC(C)C)C1c1cccc([N+](=O)[O-])c1 (configuration not stated) [NIMODIPINE] | Not Active | Not Active | Not Active | Not Active |  |  | Not Active |  |  | Not Active | Not Active |  |  |  |  | 1.27 | 0.433 |  | 
CC(C)NCC(O)COc1cccc2ccccc12 (configuration not stated) [PROPRANOLOL] | Not Active |  |  |  |  |  | Not Active |  |  | Not Active | Not Active |  |  |  |  |  |  |  | 
COCCCOc1ccnc(C[S+]([O-])c2nc3ccccc3[nH]2)c1C (configuration not stated) [RABEPRAZOLE] | Not Active | Not Active | Not Active | Not Active | Not Active | Not Active | Not Active | Not Active | Not Active | Not Active | Not Active |  |  |  |  |  |  |  | 
O=C(c1ccc(OCCN2CCCCC2)cc1)c1c(-c2ccc(O)cc2)sc2cc(O)ccc12 [RALOXIFENE] | Not Active | Not Active | Not Active |  | Not Active | Not Active | Not Active | Not Active | Not Active | Not Active |  |  |  |  |  |  |  |  | 
CNC(=C[N+](=O)[O-])NCCSCc1ccc(CN(C)C)o1 [RANITIDINE] | Not Active | Not Active | Not Active | Not Active | Not Active | Not Active | Not Active | Not Active | Not Active | Not Active | Not Active |  |  |  |  |  |  |  | 
CO[C@H]1/C=C/O[C@@]2(C)Oc3c(C)c(O)c4c(c3C2=O)C2=NC3(CCN(CC(C)C)CC3)NC2=C(NC(=O)/C(C)=C\C=C\[C@H](C)[C@H](O)[C@@H](C)[C@@H](O)[C@@H](C)[C@H](OC(C)=O)[C@@H]1C)C4=O [RIFABUTIN] | Not Active | Not Active | Not Active | Not Active | Not Active | Not Active | Not Active | Not Active | Not Active | Not Active | Not Active |  |  |  |  |  |  |  | 
CC(C)c1nc(CN(C)C(=O)N[C@H](C(=O)N[C@@H](Cc2ccccc2)C[C@H](O)[C@H](Cc2ccccc2)NC(=O)OCc2cncs2)C(C)C)cs1 [RITONAVIR] | Not Active | Not Active | Not Active | Not Active | Not Active | Not Active | Not Active |  |  | Not Active | Not Active |  |  |  |  |  |  |  | 
CC(C)CC(N(C)C)C1(c2ccc(Cl)cc2)CCC1 (configuration not stated) [SIBUTRAMINE] | Not Active | Not Active | Not Active | Not Active | Not Active | Not Active | Not Active | Not Active | Not Active | Not Active | Not Active |  |  |  |  |  |  |  | 
[H]/N=C(/N)N[C@H]1[C@H](O)[C@@H](O)[C@H](O[C@@H]2O[C@@H](C)[C@](O)(C=O)[C@H]2O[C@@H]2O[C@@H](CO)[C@H](O)[C@@H](O)[C@@H]2NC)[C@@H](N/C(N)=N\[H])[C@@H]1O [STREPTOMYCIN] | Not Active | Not Active | Not Active | Not Active | Not Active | Not Active | Not Active | Not Active | Not Active | Not Active | Not Active |  |  |  |  |  |  |  | 
COc1cc(NS(=O)(=O)c2ccc(N)cc2)nc(OC)n1 [SULFADIMETHOXINE] | Not Active | Not Active | Not Active | Not Active | Not Active | Not Active | Not Active | Not Active | Not Active | Not Active | Not Active |  |  |  |  |  |  |  | 
Cc1cc(C)nc(NS(=O)(=O)c2ccc(N)cc2)n1 [SULFAMETHAZINE] | Not Active | Not Active | Not Active | Not Active | Not Active | Not Active | Not Active | Not Active | Not Active | Not Active | Not Active |  |  |  |  |  |  |  | 
C[C@]1(Cn2ccnn2)[C@H](C(=O)O)N2C(=O)C[C@H]2S1(=O)=O [TAZOBACTAM] | Not Active | Not Active | Not Active | Not Active | Not Active | Not Active | Not Active | Not Active | Not Active | Not Active | Not Active |  |  |  |  |  |  |  | 
CN1C(C(=O)Nc2ccccn2)=C(O)c2sccc2S1(=O)=O [TENOXICAM] | Not Active | Not Active | Not Active | Not Active | Not Active | Not Active | Not Active | Not Active | Not Active | Not Active | Not Active |  |  |  |  |  |  |  | 
CC(C)(C)c1ccc(C(O)CCCN2CCC(C(O)(c3ccccc3)c3ccccc3)CC2)cc1 (configuration not stated) [TERFENADINE] | Not Active | Not Active | Not Active |  | Not Active | Not Active | Not Active | Not Active | Not Active | Not Active | Not Active |  |  |  |  |  |  |  | 
O=C1CCC(N2C(=O)c3ccccc3C2=O)C(=O)N1 (configuration not stated) [THALIDOMIDE] | Not Active | Not Active | Not Active | Not Active | Not Active | Not Active | Not Active | Not Active | Not Active | Not Active | Not Active |  |  |  |  |  |  |  | 
Cc1onc(-c2ccccc2)c1-c1ccc(S(N)(=O)=O)cc1 [VALDECOXIB] | Not Active | Not Active | Not Active | Not Active | Not Active | Not Active |  | Not Active | Not Active | Not Active | Not Active |  |  |  |  |  |  |  | 
